Data taken from US8541442B2, “Indole derivatives as anticancer agents” (Janssen Pharmaceutica N.V., priority 2009, dated 2013).
Like-named read-outs stand apart in the source and are kept apart here.

How the values were obtained:
human U87 glioma tumor = test: In vivo anti tumour effects, U87 glioma xenograft; settings: U87 xenograft in NMRI Nude mice, 20 mg/kg p.o. QD for 5 days; for response vs control in vivo at 20 mg/kg: Mus musculus, U-87 MG, po
Method: Immuno-deficient (athymic) male NMRI Nude (Nu/Nu) mice (20-25 g obtained from Janvier, France) were used for these studies. Initial weight was approximately […]. All animals were maintained under SPF “full barrier” conditions with free access to food and water. Mice were group housed under a 12-h light:dark cycle (lights on at 06:00 h) at a temperature of 19 to 22° C. and 35 to 40% humidity in Techniplast type-3 IVC cages. Mice were fed a standard Laboratory chow. All experiments were carried out in accordance with the European Communities Council Directives (86/609/EEC) and had to be approved by the local ethical committee. For an established tumor xenograft model (tumor volume ˜200 mm^3), mice were randomized according to tumor volumes, with 5 mice per treatment group.
The human U87 glioma tumor cell line was derived from a patient. Cells were cultured at 37° C. in a humidified atmosphere (5% CO2, 95% air), in DMEM medium supplemented with 2 mM L-glutamine, 2.0 mM sodium pyruvate, 25 units/ml penicillin/25 μg/ml streptomycin and 10% fetal bovine serum. Cells were maintained as cell monolayer cultures, being passaged twice weekly at 3×10^6 cells per T175 flask using the following procedure. Briefly cells were washed with PBS (without Mg^2+, Ca^2+), before addition of trypsin-EDTA to the culture flasks. After detachment of cells the trypsin-EDTA was inactivated by addition of complete medium. Cell suspension was then transferred to 50 ml Falcon tube and centrifuged for 3 min at 1200 rpm. Medium was aspirated, with the cells being re-suspended in an appropriate volume of complete medium. The cells were counted in a haemocytometer and their viability was assessed by 0.25% trypan blue exclusion. An appropriate volume of cell suspension was then added to either a new T175 culture flask(s) or roller bottle containing fresh medium. For large scale-up growth of U87 tumor cells, an appropriate number of roller bottles were seeded with 0.5 to 1×10^7 cells 1 week prior to inoculation of mice. The medium was changed twice during this period, with the last change being the day prior to cell injection. Cells were collected as described above, with the exception that after centrifugation, the cells were re-suspended in cold (4° C.) serum-free medium. Mice were injected in the inguinal region with 1×10^7 cells total in a 200 μl volume.
Human U87 glioma cells were injected directly into the inguinal region of the male NMRI Nude mice (1×10^7 cells/200 μl/animal) on day 0 (D0). On day 7-10 (can vary due to tumor take/growth between cell batches) when tumor volume had reached an approximate average of 200 mm^3, mice were randomized according to tumor volume, with 5 mice per treatment group. Mice were then treated once daily (QD) with either vehicle (10% HP-β-CD) or vehicle containing test compound (20 mg/kg) by gavage (p.o.) administered in a volume of 10 ml/kg body weight for 5 days. Specific tumor measurements were taken on day 6 (24 hours post 5th dose) and then again on day 10. Tumor re-growth (after dosing has stopped) was monitored so that the time-to-reach a volume of 2000 mm^3 (TTR2000) can be recorded. This gives extra information on the duration of drug action on the tumor growth. In general, tumor size and body weights were measured twice weekly, with mice monitored daily for clinical signs of toxicity for the duration of the treatment. Clinical signs of toxicity included (but not limited to), persistent anorexia or dehydration, posture, moribund, lethargy, hypothermia and/or laboured respiration (according to the UKCCCR guidelines for welfare of animals in experimental neoplasia (The UKCCCR (UK Coordinating Committee on Cancer Research) guidelines for the welfare of animals in experimental neoplasia (July 1997); and Workman, P. et al. UKCCCR guideline. Br. J. Cancer. 1998, 77: 1-10). […]

[1] = tested on: colorectal cancer cell line HCT116; test: Alamar Blue cell proliferation assay, HCT116; type: cell-based; settings: for IC50: Homo sapiens, HCT-116, HCT116 cells, read-out: HCT116 cell proliferation inhibition pIC50 (converted); for HCT116 cell proliferation inhibition pIC50: HCT116 cells
Method: (§1) For experiments in 384 wells plates the cells were seeded at a density of 5×10^3 cells/ml in Falcon 384-well culture plates (Life Technologies, Merelbeke, Belgium), black with clear bottom, in 45 μl culture medium. Cells were allowed to adhere to plastic for 24 hr. The tested compound was pre-diluted (1/50 in culture medium) and 5 μl pre-diluted compound was added to the wells. Following 4-day incubation, 10 μl of the Alamar Blue solution was added to each well and the cells were further incubated for 5 hrs (A2780) at 37° C. The fluorescence intensity was measured for each well with a Fluorescence plate reader (Fluorskan, Labsystems, 540 nm excitation and 590 nm emission)
(§2) The antiproliferative activity was calculated as percentage of remaining viable cells in treated versus control (untreated cells) conditions. Within an experiment, the result for each experimental condition is the mean of 3 replicate wells. When appropriate, the experiments were repeated to establish full concentration-response curves. When appropriate, IC50-values (concentration of the drug, needed to reduce cell growth to 50% of the control) were computed using probit analysis for graded data (Finney, D. J., Probit Analyses, 2nd Ed. Chapter 10, Graded Responses, Cambridge University Press, Cambridge 1962). Herein the effects of test compounds are expressed as pIC50 (the negative log value of the IC50-value (M)) (see Table 5A).
(§3) Compounds were also tested according to the above protocol but using other cell lines: colorectal cancer cell line HCT116, non-small cell lung cancer cell line H1299, human prostate cancer cell line DU145.

[2] = tested on: non-small cell lung cancer cell line H1299; test: Alamar Blue cell proliferation assay, H1299; type: cell-based; settings: for IC50: Homo sapiens, NCI-H1299, H1299 cells, read-out: H1299 cell proliferation inhibition pIC50 (converted); for H1299 cell proliferation inhibition pIC50: H1299 cells
Method: as §1, §2, §3

[3] = day 6 after start dosing, 20 mg/kg
[4] = day 10 after start dosing, 20 mg/kg
[5] = 144 h, day 6 after start dosing, read-out: % T/C day 6
[6] = 240 h, day 10 after start dosing, read-out: % T/C day 10

SMILES | % T/C day 6 (human U87 glioma tumor; [3]) [%] | % T/C day 10 (human U87 glioma tumor; [4]) [%] | response vs control in vivo at 20 mg/kg (human U87 glioma tumor; [5]) [%] | response vs control in vivo at 20 mg/kg (human U87 glioma tumor; [6]) [%] | IC50 [1] [nM] | IC50 [2] [nM] | % T/C day 6 (human U87 glioma tumor; day 6 after start dosing) [%] | % T/C day 10 (human U87 glioma tumor; day 10 after start dosing) [%] | H1299 cell proliferation inhibition pIC50 [2] | HCT116 cell proliferation inhibition pIC50 [1]
COC1CCc2c(Nc3ccc(NCCc4c[nH]c5c(C(C)(C)O)cccc45)cc3)ccnc21 (single isomer, unassigned) [Compound 25] | 330 | −3 | – | – | – | – | – | – | – | –
Cc1cc(Nc2ccnc3c2CCC3O)ccc1NCCc1c[nH]c2c(CCC(C)O)cccc12 (centres unmarked) [Compound 9] | – | – | 145 | 113 | 955 | 6760 | – | – | – | –
Cc1cc(Nc2ccnc(CO)c2)ccc1NCCc1c[nH]c2c(C(C)(C)O)cccc12 [Compound 19] | – | – | – | – | – | – | 57 | 40 | 5.46 | –
Cc1cc(Nc2ccnc3c2CCC3O)ccc1NCCc1c[nH]c2c(C(C)O)cccc12 (single isomer, unassigned) [Compound 15] | 53 | 88 | – | – | – | – | – | – | 5.82 | 6.69
Cc1cc(Nc2ccnc3c2CCC3O)ccc1NCCc1c[nH]c2c(C(C)O)cccc12 (single isomer, unassigned) [Compound 12] | 64 | 71 | – | – | – | – | – | – | 5.2 | 6.06
Cc1cc(Nc2ccnc3c2CCC3(C)O)ccc1NCCc1c[nH]c2c(C(C)(C)O)cccc12 (single isomer, unassigned) [Compound 27] | 193 | 22 | – | – | 83.2 | 1020 | – | – | – | –
COC1CCc2c(Nc3ccc(NCCc4c[nH]c5c(C(C)O)cccc45)c(C)c3)ccnc21 (centres unmarked) [Compound 16] | – | – | – | – | – | – | 63 | 64 | 6.73 | 6.68
Cc1cc(Nc2ccnc3c2CCC3O)ccc1NCCc1c[nH]c2c(C(C)(C)O)cccc12 (centres unmarked) [Compound 20] | – | – | – | – | – | – | – | – | 5.72 | –
CC(C)(O)c1cccc2c(CCNc3ccc(Nc4ccnc5c4CCC5(C)O)cc3)c[nH]c12 (single isomer, unassigned) [Compound 30] | −61 | −10 | – | – | – | – | – | – | 6.02 | 7.19
Cc1cc(Nc2ccnc(CO)c2)ccc1NCCc1c[nH]c2c(C(C)O)cccc12 (centres unmarked) [Compound 5] | – | – | 103 | 67 | 347 | 5890 | – | – | – | –
Cc1cc(Nc2ccnc3c2CCC3O)ccc1NCCc1c[nH]c2c(C(C)(C)O)cccc12 (centres unmarked) [Compound 18] | – | – | 9 | -3 | 53.7 | – | – | – | 6.38 | –
OCc1cccc2c(CCNc3ccc(Nc4ccnc5c4CCC5O)cc3)c[nH]c12 (centres unmarked) [Compound 6] | – | – | 105 | 99 | 4070 | 9330 | – | – | – | –
Cc1cc(Nc2ccnc3c2CCC3O)ccc1NCCc1c[nH]c2c(CCO)cccc12 (single isomer, unassigned) [Compound 23] | – | – | – | – | – | – | 72 | 95 | 5.61 | 5.53
COC1CCc2c(Nc3ccc(NCCc4c[nH]c5c(C(C)(C)O)cccc45)c(C)c3)ccnc21 (single isomer, unassigned) [Compound 29] | −196 | −13 | – | – | – | – | – | – | 6.67 | 7.37
CC(C)(O)c1cccc2c(CCNc3ccc(Nc4ccnc5c4CCC5(C)O)cc3)c[nH]c12 (single isomer, unassigned) [Compound 31] | 179 | 1 | – | – | – | – | – | – | 5.84 | 6.94
COc1cc(Nc2ccnc3c2CCC3O)ccc1NCCc1c[nH]c2c(C(C)(C)O)cccc12 (centres unmarked) [Compound 11] | – | – | – | – | – | – | 72 | 79 | 5.81 | 6.67
Cc1cc(Nc2ccnc3c2CCC3(C)O)ccc1NCCc1c[nH]c2c(C(C)(C)O)cccc12 (single isomer, unassigned) [Compound 26] | 354 | −11 | – | – | – | – | – | – | 6.27 | 7.26
Cc1cc(Nc2ccnc3c2CCC3(C)O)ccc1NCCc1c[nH]c2c(C(C)(C)O)cccc12 (centres unmarked) [Compound 1] | – | – | 17 | 8 | 151 | 871 | – | – | – | –
COC1CCc2c(Nc3ccc(NCCc4c[nH]c5c(C(C)(C)O)cccc45)cc3)ccnc21 (single isomer, unassigned) [Compound 24] | 60 | 1 | – | – | 38 | 234 | – | – | – | –
C=C(C)c1cccc2c(CCNc3ccc(Nc4ccnc5c4CCC5OC)cc3)c[nH]c12 (centres unmarked) [Compound 7] | – | – | – | – | 100 | 407 | – | – | – | –
Cc1cc(Nc2ccncc2)ccc1NCCc1c[nH]c2c(C(C)(C)O)cccc12 [Compound 2] | – | – | 14 | -0.23 | – | 1150 | – | – | – | –
Cc1cc(Nc2ccncc2)ccc1NCCc1c[nH]c2c(C(O)C(C)C)cccc12 (centres unmarked) [Compound 22] | – | – | – | – | – | – | 40 | 55 | 5.09 | –
Cc1cc(Nc2ccnc3c2CCC3=O)ccc1NCCc1c[nH]c2c(C(C)O)cccc12 (centres unmarked) [Compound 4] | – | – | 77 | 129 | 1000 | 3720 | – | – | – | –
COC1CCc2c(Nc3ccc(NCCc4c[nH]c5c(C(C)(C)O)cccc45)c(C)c3)ccnc21 (single isomer, unassigned) [Compound 28] | −280 | −10 | – | – | – | – | – | – | 6.73 | 7.11
